Source: article PMC10583863 (European journal of medicinal chemistry, 2022)

Experiments:
Type in all cases: cell-based, Mycobacterium tuberculosis
DR1 (mmpl3, V681I) = system: DR1 (mmpl3, V681I)
53.3 (Rv2466c, W28S) = system: 53.3 (Rv2466c, W28S)
88.1 (coaA, Q207R) = system: 88.1 (coaA, Q207R)
NTB1 (dprE1, G387S) = system: NTB1 (dprE1, G387S)
53.8 (Rv0579, L240V) = system: 53.8 (Rv0579, L240V)
88.7 (pyrG, V186G) = system: 88.7 (pyrG, V186G)

Measured: MIC90

NNC(=O)c1ccncc1 [INH, Isoniazide]
0.025 µg/mL: all assays above
